In assay [1] the target is human GlyT1c transporter (Homo sapiens (Human), UniProt P48067). Description: Radioligand binding assay using recombinant CHO cell membranes expressing human GlyT1. The following applies: read-out: radioligand binding Kiapp. From the text:
2. Radioligand binding assays using recombinant CHO cell membranes expressing human GlyT1: […]

Assay [2] addresses human GlyT1c (Homo sapiens (Human), UniProt P48067). Description: [3H]-Glycine uptake into recombinant CHO cells expressing human GlyT1. It counts as cell-based. On the procedure: 1. [^3H]-Glycine uptake into recombinant CHO cells expressing human GlyT1: Human GlyT1c expressing recombinant hGlyT1c—5_CHO cells were plated at 20,000 cells per well in 96 well Cytostar-T scintillation microplates (Amersham Biosciences) and cultured to sub-confluency for 24 h. […] 80 μl HBSS buffer were added, followed by 10 μl inhibitor or vehicle (10% DMSO) and 10 μl [^3H]-glycine (TRK71, Amersham Biosciences) to a final concentration of 200 nM for initiation of glycine uptake. The plates were placed in a Wallac Microbeta (PerkinElmer) and continuously counted by solid phase scintillation spectrometry during up to 3 hours. Nonspecific uptake was determined in the presence of 10 μM Org24598.

Where [3] appears, read: human GlyT1c-expressing CHO cell membranes.
Setting [4] is: hGlyT1c_5_CHO cells, 200 nM [3H]-glycine.

The term IC50 denotes the concentration that gives 50% inhibition.

Each structure is given as a SMILES string. Structures can show the parent of a compound that is named as a salt. Where two headings read alike, the source gives them in different places. Bounds are passed on as bounds.

human GlyT1c transporter, sequence (P48067 whole entry): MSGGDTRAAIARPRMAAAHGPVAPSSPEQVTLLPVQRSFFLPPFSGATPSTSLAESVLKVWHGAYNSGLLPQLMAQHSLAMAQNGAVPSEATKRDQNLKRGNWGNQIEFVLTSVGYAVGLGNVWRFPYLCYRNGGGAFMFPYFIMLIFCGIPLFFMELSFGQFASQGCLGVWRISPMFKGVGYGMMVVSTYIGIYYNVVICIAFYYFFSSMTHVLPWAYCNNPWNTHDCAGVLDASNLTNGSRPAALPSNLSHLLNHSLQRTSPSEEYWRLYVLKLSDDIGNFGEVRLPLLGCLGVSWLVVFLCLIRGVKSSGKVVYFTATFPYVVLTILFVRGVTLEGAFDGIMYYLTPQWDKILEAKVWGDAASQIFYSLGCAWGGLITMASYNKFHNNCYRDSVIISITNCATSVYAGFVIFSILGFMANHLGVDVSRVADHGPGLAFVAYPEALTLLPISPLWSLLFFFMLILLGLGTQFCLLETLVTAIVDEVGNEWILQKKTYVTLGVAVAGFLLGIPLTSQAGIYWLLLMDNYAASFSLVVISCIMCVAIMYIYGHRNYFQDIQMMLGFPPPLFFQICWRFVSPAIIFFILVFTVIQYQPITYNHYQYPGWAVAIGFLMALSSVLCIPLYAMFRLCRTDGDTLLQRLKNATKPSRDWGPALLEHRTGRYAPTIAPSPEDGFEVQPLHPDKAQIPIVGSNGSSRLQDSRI
human GlyT1c, sequence (P48067 whole entry): as above

Consider `CCCS(=O)(=O)N1CC(Oc2ccc3c(c2)C(Cc2cccc(Cl)c2)C(N)CC3)C1` (stereo not drawn) [Example 83, 1-(3-Chloro-benzyl)-7-[1-(propane-1-sulfonyl)-azetidin-3-yloxy]-1,2,3,4-tetrahydronaphthalen-2-ylamine hydrochloride], for which, in assay [1] (setting [3]), the Ki was at most 1 µM. The IC50 in assay [2] (setting [4]) is at most 10 µM. The matching figures for `CCOC(=O)NC1CCc2ccc(OCCNS(=O)(=O)c3ccc(C)s3)cc2C1Cc1ccc(Cl)cc1Cl` (stereo not drawn) [Example 64, {1-(2,4-Dichloro-benzyl)-7-[2-(5-methyl-thiophene-2-sulfonylamino)-ethoxy]-1,2,3,4-tetrahydro-naphthalen-2-yl}-carbamic acid ethyl ester]: at most 10 µM and at most 1000 µM. `CCn1cc(S(=O)(=O)NCCOc2ccc3c(c2)C(Cc2cccc(Cl)c2)C(N)CC3)cn1` (stereo not drawn) [Example 66, 1-Ethyl-1H-pyrazole-4-sulfonic acid {2-[7-amino-8-(3-chloro-benzyl)-5,6,7,8-tetrahydronaphthalen-2-yloxy]-ethyl}-amide hydrochloride]: in assay [1], the Ki is at most 0.1 µM. Moreover, the IC50 in assay [2] was at most 1 µM.

On to `CCS(=O)(=O)NCCOc1ccc2c(c1)C(Cc1cccc(Cl)c1)C(N)CC2` (stereo not drawn) [Example 70, Ethanesulfonic acid {2-[7-amino-8-(3-chloro-benzyl)-5,6,7,8-tetrahydro-naphthalen-2-yloxy]-ethyl}-amide hydrochloride], for which the Ki in assay [1] is at most 0.1 µM. In addition, the IC50 in assay [2] was at most 1 µM.

On to `Cn1cnc(S(=O)(=O)NCCOc2ccc3c(c2)C(Cc2ccc(Cl)c(Cl)c2)C(NC(=O)C(F)(F)F)CC3)c1` (stereo not drawn) [Example 18, N-{1-(3,4-Dichloro-benzyl)-7-[2-(1-methyl-1H-imidazole-4-sulfonylamino)-ethoxy]-1,2,3,4-tetrahydro-naphthalen-2-yl}-2,2,2-trifluoro-acetamide], for which, in assay [1] (setting [3]), the Ki was at most 0.01 µM. Also, the IC50 in assay [2] (setting [4]) is at most 0.1 µM.

As to `CCOC(=O)NC1CCc2ccc(OCCNS(=O)(=O)c3cn(C)cn3)cc2C1Cc1cccc(Cl)c1` (stereo not drawn) [Example 80, {1-(3-Chloro-benzyl)-7-[2-(1-methyl-1H-imidazole-4-sulfonylamino)-ethoxy]-1,2,3,4-tetrahydro-naphthalen-2-yl}-carbamic acid ethyl ester], the Ki in assay [1] (setting [3]) is at most 1 µM. Moreover, in assay [2] (setting [4]), the half-inhibitory concentration (IC50) was at most 1 µM. On to `Cn1cc(S(=O)(=O)NCCOc2ccc3c(c2)C(Cc2ccc(Cl)c(Cl)c2)C(N)CC3)cn1` (stereo not drawn) [Example 4, 1-Methyl-1H-pyrazole-4-sulfonic acid {2-[7-amino-8-(3,4-dichloro-benzyl)-5,6,7,8-tetrahydro-naphthalen-2-yloxy]-ethyl}-amide hydrochloride], for which the Ki in assay [1] (setting [3]) is at most 0.01 µM. In assay [2] (setting [4]), the 50% inhibitory concentration (IC50) was at most 0.01 µM. Take `CN(C)S(=O)(=O)NCCOc1ccc2c(c1)C(Cc1ccc(Cl)c(Cl)c1)C(N)CC2` (stereo not drawn) [Example 25, N′-(2-{[7-amino-8-(3,4-dichlorobenzyl)-5,6,7,8-tetrahydronaphthalen-2-yl]oxy}ethyl)-N,N-dimethylsulfuric diamide hydrochloride]: the Ki in assay [1] (setting [3]) is at most 0.1 µM. In addition, in assay [2] (setting [4]), the 50% inhibitory concentration (IC50) was at most 1 µM. The matching figures for `Cn1cc(S(=O)(=O)NCCOc2ccc3c(c2)C(Cc2cccc(Cl)c2)C(N)CC3)cn1` (stereo not drawn) [Example 47, 1-Methyl-1H-pyrazole-4-sulfonic acid {2-[7-amino-8-(3-chloro-benzyl)-5,6,7,8-tetrahydronaphthalen-2-yloxy]-ethyl}-amide hydrochloride]: at most 0.01 µM and at most 0.01 µM. With `CCCS(=O)(=O)N(C)CCOc1ccc2c(c1)C(Cc1ccc(Cl)cc1)C(NC(=O)OCC)CC2` (stereo not drawn) [Example 76, (1-(4-Chloro-benzyl)-7-{2-[methyl-(propane-1-sulfonyl)-amino]-ethoxy}-1,2,3,4-tetrahydronaphthalen-2-yl)-carbamic acid ethyl ester], in assay [1] (setting [3]), the Ki is at most 100 µM. Also, the IC50 in assay [2] (setting [4]) is at most 1000 µM. Turning to `CCCS(=O)(=O)NCCOc1ccc2c(c1)C(Cc1cccc(Cl)c1)C(N)CC2` (stereo not drawn) [Example 55, Propane-1-sulfonic acid {2-[7-amino-8-(3-chloro-benzyl)-5,6,7,8-tetrahydro-naphthalen-2-yloxy]-ethyl}-amide hydrochloride], the Ki in assay [1] is at most 0.01 µM. In addition, in assay [2], the IC50 is at most 0.1 µM. As for `NC1CCc2ccc(CNS(=O)(=O)CCCF)cc2C1Cc1ccc(Cl)c(Cl)c1` (stereo not drawn) [Example 41, N-{[7-Amino-8-(3,4-dichlorobenzyl)-5,6,7,8-tetrahydronaphthalen-2-yl]methyl}-3-fluoropropane-1-sulfonamide hydrochloride], the Ki in assay [1] (setting [3]) is at most 10 µM. Also, in assay [2] (setting [4]), the concentration for half-maximal inhibition (IC50) is at most 100 µM. As to `CCOC(=O)NC1CCc2ccc(C#N)cc2C1Cc1ccc(Cl)c(Cl)c1` (stereo not drawn) [Example 32, Ethyl [7-cyano-1-(3,4-dichlorobenzyl)-1,2,3,4-tetrahydronaphthalen-2-yl]carbamate], the Ki in assay [1] (setting [3]) is at most 10 µM. Also, the concentration for half-maximal inhibition (IC50) in assay [2] (setting [4]) was at most 100 µM. The matching figures for `CCOC(=O)NC1CCc2ccc(OCCNS(=O)(=O)c3cccs3)cc2C1Cc1cccc(Cl)c1` (stereo not drawn) [Example 50, {1-(3-Chloro-benzyl)-7-[2-(thiophene-2-sulfonylamino)-ethoxy]-1,2,3,4-tetrahydronaphthalen-2-yl}-carbamic acid ethyl ester]: at most 1 µM and at most 10 µM. The corresponding values for `CCCS(=O)(=O)N1CCC[C@@H]1COc1ccc2c(c1)C(Cc1cccc(Cl)c1)C(N)CC2` (stereo partly drawn) [Example 82, 1-(3-Chloro-benzyl)-7-[(R)-1-(propane-1-sulfonyl)-pyrrolidin-2-ylmethoxy]-1,2,3,4-tetrahydro-naphthalen-2-ylamine hydrochloride] are at most 0.1 µM and at most 1 µM.

In the case of `CCOC(=O)NC1CCc2ccc(OCCNS(=O)(=O)c3cccs3)cc2C1Cc1ccc(Cl)c(Cl)c1` (stereo not drawn) [Example 14, {1-(3,4-Dichloro-benzyl)-7-[2-(thiophene-2-sulfonylamino)-ethoxy]-1,2,3,4-tetrahydronaphthalen-2-yl}-carbamic acid ethyl ester], the Ki in assay [1] (setting [3]) is at most 100 µM. The IC50 in assay [2] (setting [4]) is at most 1000 µM. For the compound `CCOC(=O)NC1CCc2ccc(OCCNS(=O)(=O)CC)cc2C1Cc1cccc(Cl)c1` (stereo not drawn) [Example 65, [1-(3-Chloro-benzyl)-7-(2-ethanesulfonylamino-ethoxy)-1,2,3,4-tetrahydro-naphthalen-2-yl]-carbamic acid ethyl ester], the Ki in assay [1] (setting [3]) was at least 10 µM. Besides, in assay [2] (setting [4]), the 50% inhibitory concentration (IC50) is at most 100 µM. The corresponding values for `Cn1cnc(S(=O)(=O)NCCOc2ccc3c(c2)C(Cc2ccc(Cl)c(Cl)c2)C(NC=O)CC3)c1` (stereo not drawn) [Example 20, 1-Methyl-1H-imidazole-4-sulfonic acid {2-[8-(3,4-dichloro-benzyl)-7-formylamino-5,6,7,8-tetrahydro-naphthalen-2-yloxy]-ethyl}-amide] are at most 0.01 µM and at most 0.1 µM. In the case of `O=C(NC1CCc2ccc(O)cc2C1Cc1ccc(Cl)cc1)OCc1ccccc1` (stereo not drawn) [Example 37, Benzyl [1-(4-chlorobenzyl)-7-hydroxy-1,2,3,4-tetrahydronaphthalen-2-yl]carbamate], the Ki in assay [1] (setting [3]) is at most 10 µM. In assay [2] (setting [4]), the concentration for half-maximal inhibition (IC50) is at most 100 µM. As to `CCS(=O)(=O)CCCOc1ccc2c(c1)C(Cc1cccc(Cl)c1)C(N)CC2` (stereo not drawn) [Example 84, 1-(3-Chloro-benzyl)-7-(3-ethanesulfonyl-propoxy)-1,2,3,4-tetrahydro-naphthalen-2-ylamine hydrochloride], the Ki in assay [1] is at most 10 µM. Moreover, the IC50 in assay [2] is at most 10 µM. As for `CCCS(=O)(=O)N(C)CCOc1ccc2c(c1)C(Cc1cccc(Cl)c1)C(NC(=O)OCC)CC2` (stereo not drawn) [Example 78, (1-(3-Chloro-benzyl)-7-{2-[methyl-(propane-1-sulfonyl)-amino]-ethoxy}-1,2,3,4-tetrahydronaphthalen-2-yl)-carbamic acid ethyl ester], the Ki in assay [1] (setting [3]) was at most 10 µM. In addition, the half-maximal inhibitory concentration (IC50) in assay [2] (setting [4]) was at most 10 µM. Regarding `CS(=O)(=O)NCCOc1ccc2c(c1)C(Cc1ccc(Cl)c(Cl)c1)C(N)CC2` (stereo not drawn) [Example 15, N-{2-[7-Amino-8-(3,4-dichloro-benzyl)-5,6,7,8-tetrahydro-naphthalen-2-yloxy]-ethyl}-methanesulfonamide hydrochloride], the Ki in assay [1] is at most 1 µM. Moreover, in assay [2], the concentration for half-maximal inhibition (IC50) was at most 1 µM.

Regarding `NC1CCc2ccc(CCCNS(=O)(=O)CC3CC3)cc2C1Cc1ccccc1` (stereo not drawn) [Example 207, N-{3-[7-Amino-8-benzyl-5,6,7,8-tetrahydronaphthalen-2-yl]propyl}-1-cyclopropylmethanesulfonamide trifluoroacetate], the Ki in assay [1] (setting [3]) is at most 0.1 µM. The same measure, in the same setting: next, `CCN(CCOc1ccc2c(c1)C(Cc1ccc(Cl)c(Cl)c1)C(N)CC2)S(=O)(=O)c1cnn(C)c1` (stereo not drawn) [Example 110, N-(2-(7-Amino-8-(3,4-dichlorobenzyl)-5,6,7,8-tetrahydronaphthalen-2-yloxy)ethyl)-N-ethyl-1-methyl-1H-pyrazole-4-sulfonamide]: at most 1 µM; `CNC1CCc2ccc(OCCNS(=O)(=O)c3cn(C)cn3)cc2C1Cc1ccccc1Cl` (stereo not drawn) [Example 303, 1-Methyl-1H-imidazole-4-sulfonic acid {2-[8-(2-chloro-benzyl)-7-methylamino-5,6,7,8-tetrahydro-naphthalen-2-yloxy]-ethyl}-amide hydrochloride]: at most 0.1 µM.

As for `CNC1CCc2ccc(OCCNS(=O)(=O)c3ccn(C)c3)cc2C1Cc1cc(F)cc(F)c1` (stereo not drawn) [Example 246, N-(2-{[8-(3,5-Difluorobenzyl)-7-(methylamino)-5,6,7,8-tetrahydronaphthalen-2-yl]oxy}ethyl)-1-methyl-1H-pyrrole-3-sulfonamide hydrochloride], in assay [1] (setting [3]), the Ki was at most 0.01 µM.
